4 compounds from ChEMBL document CHEMBL1139284, “Synthesis and evaluation of novel photoreactive alpha-amino acid analog carrying acidic and cleavable functions” (Bioorg Med Chem Lett, 2009) can be followed below.

One test deals with Glutamyl endopeptidase (Staphylococcus aureus, UniProt P0C1U8). Nature of the test: Binding affinity to Staphylococcus aureus V8 glutamyl endopeptidase. Particulars: read-out: Ki(app).
The target of test [1] is Glutamyl endopeptidase (Staphylococcus aureus) (UniProt P0C1U8). The test can be described thus: Binding affinity to Staphylococcus aureus V8 glutamyl endopeptidase after 40 mins of UV irradiation by photoaffinity labeling assay.

Each structure is given as a SMILES string. Activity calls are given as the source filed them. The calls are words filed in the database; no cut-off is given here.

Chain of Glutamyl endopeptidase (Staphylococcus aureus) (P0C1U8 whole entry): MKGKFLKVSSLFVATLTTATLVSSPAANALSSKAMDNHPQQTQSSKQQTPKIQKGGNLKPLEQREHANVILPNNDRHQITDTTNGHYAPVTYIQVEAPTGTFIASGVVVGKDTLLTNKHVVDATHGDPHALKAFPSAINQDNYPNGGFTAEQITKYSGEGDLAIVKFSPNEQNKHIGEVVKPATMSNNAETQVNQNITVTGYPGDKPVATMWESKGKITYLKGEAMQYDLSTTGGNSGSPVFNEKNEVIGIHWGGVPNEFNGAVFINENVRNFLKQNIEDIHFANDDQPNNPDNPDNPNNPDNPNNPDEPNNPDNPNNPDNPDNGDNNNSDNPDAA
Chain of Glutamyl endopeptidase (P0C1U8 whole entry): as above

Consider `CC(C)(C)OC(=O)N[C@@H](CS(=O)(=O)NC(=O)c1ccc(C2(C(F)(F)F)N=N2)cc1)C(=O)NCCOCCOCCNC(=O)CCCC[C@@H]1SCC2NC(=O)NC21` (some centres undefined), for which the Ki at Glutamyl endopeptidase was found to be 162 µM.

Consider `CC(C)(C)OC(=O)N[C@@H](CCC(=O)OCc1ccccc1)C(N)=O`, for which the outcome in test [1] was inactive.

For the compound `CC(C)(C)OC(=O)N[C@@H](CS(=O)(=O)NC(=O)c1ccccc1)C(N)=O`, the outcome in test [1] was Active.

Consider `CC(C)(C)OC(=O)N[C@@H](CCC(=O)O)C(N)=O`, for which, in test [1], the outcome was Active.
